The values that follow come from patent US20030158160A1, “Pharmaceutical combination of an anti-androgen and tamoxifen for providing an anti-androgenic effect and aromatase inhibition” (priority 2000, published 2003).

One assay has as its system healthy male volunteers. The assay can be described thus: Human clinical trial: free testosterone levels after CASODEX together with NOLVADEX or CASODEX alone. The format is in vivo. The conditions noted are these: for Free testosterone concentration, gmean: n=7. The procedure:
The following clinical trial was performed to determine the effect of the administration of CASODEX™ together with NOLVADEX™ on free testosterone levels in healthy male volunteers over a 6 week period.
Key Inclusion Criteria: Male, aged 65 years or above showing no clinically significant abnormalities in routine haematological and biochemical tests and having endocrinology and prostate specific antigen (PSA) results within normal limits.
Key Exclusion Criteria: Previous inclusion in a clinical trial using CASODEX™; concurrent treatment with any drugs with the exception of paracetomol; history or presence of any testicular abnormality; history or presence of gastrointestinal, hepatic or renal disease, or other condition known to interfere with the absorption, distribution, metabolism or excretion of drugs; a clinically significant illness within 2 weeks of trial commencement; definite or suspected personal or family history of significant adverse drug reactions or any hypersensitivity to CASODEX™ or NOLVADEX™; treatment within the previous 3 months with any drugs known to have a well-defined potential for hepatotoxicity or hepatic interaction.
Dosage: The CASODEX™ was administered daily at a dose of 150 mg and the NOLVADEX™ was administered daily at a dose of 20 mg. All treatments were in tablet form and taken once daily. Daily treatment with CASODEX™ plus NOLVADEX™ was for 6 weeks, this period being selected as the minimum time to attain steady-state plasma concentrations for the drugs. Another set of volunteers were administered CASODEX™ alone at a daily dose of 150 mg for 4 weeks. All treatments were in tablet form and taken once daily.
Key Assessment: Free testosterone concentrations were measured during the course of the trial.
Day 1 samples were drawn before dosing, and therefore act as a baseline measurement.

In another assay the test system is humans. The conditions noted are these: single agent therapy; cited from earlier work.
The next assay deals with men. The conditions noted are these: cited from earlier work.

On to `CC(O)(CS(=O)(=O)c1ccc(F)cc1)C(=O)Nc1ccc(C#N)c(C(F)(F)F)c1` (stereo not drawn) [CASODEX™, bicalutamide], for which the “Free testosterone concentration, gmean” value stood at 0.048 nmol/L in the assay with healthy male volunteers (Day 1, sample drawn before dosing (baseline)) and 0.076 nmol/L in the assay on healthy male volunteers (Day 29, CASODEX alone 150 mg daily for 4 weeks). Also, the “Free testosterone, ratio to Day 1” value with healthy male volunteers (Day 29, CASODEX alone 150 mg daily) was 1.58. Moreover, in the assay with healthy male volunteers (end of treatment period (4 weeks CASODEX alone; 6 weeks combination)), the “Increase in mean free testosterone concentration by the end of the treatment period” value came to 58%.
Regarding `CC1(C)NC(=O)N(c2ccc([N+](=O)[O-])c(C(F)(F)F)c2)C1=O` [nilutamide, 5,5-dimethyl-3-[4-nitro-3-(trifluoromethyl)phenyl]-2,4-imidazolidinedione], in the assay with humans, the “Change of basal level of circulating testosterone” value is “causes an increase”.
In the case of `CC/C(=C(\c1ccccc1)c1ccc(OCCN(C)C)cc1)c1ccccc1` [tamoxifen, (Z)-2-[p-(1,2-diphenylbut-1-enyl)phenoxy]ethyldimethylamine], the “Effect on mean serum testosterone, oestradiol, LH levels, LH pulse frequency and LH pulse amplitude” value with men (13 normal men, 6 week administration (Spijkstra et al)) is given as “An increase”. Moreover, the “Effect on basal serum levels of LH, oestradiol and testosterone” value with men (administration to men (Lewis-Jones et al)) is on record as “elevates”. Moreover, the “Effect on testosterone and LH” value with men (intake in adult men (Comhaire et al)) was “increase testosterone and LH”. Further, the “Effect on basal LH, FSH and testosterone levels” value in the assay with men (three months' treatment, normogonadotrophic oligozoospermic men (van Bergeijk et al)) is “stimulated”.
